Measurements: patent US20240398805A1, “QUINAZOLINE DERIVED COMPOUNDS AS EGFR INHIBITORS AND THEIR USES THEREOF” (ACCUTAR BIOTECHNOLOGY INC., priority 2021, published 2024)

What was measured:
Format in all cases: cell-based
[1] = tested on: HCC827-ASV cells (human EGFR exon 20 insertion mutant A769_D770insASV); assay: Cell growth inhibition (CellTiter-Glo, 3 days) in HCC827-ASV; conditions: 72 h, 3 days after administration
How it was run: (§1)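 HCC827 cells lentivirally transduced with codon-optimized ASV or YVMA insertion mutants were seeded at 5000 cells/well in RPMI with 10% FBS and incubated overnight. Compound was added at various concentrations from a 10× stock in medium, with 3 days' incubation. Viability read by CellTiter-Glo luminescence.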

[2] = tested on: HCC827-YVMA cells (human ERBB2 exon20 insertion mutant A775_G776ins YVMA); assay: Cell growth inhibition (CellTiter-Glo, 3 days) in HCC827-YVMA; conditions: 72 h, 3 days after administration
How it was run: as §1

[3] = tested on: HCC827 cells; assay: Cell growth inhibition (CellTiter-Glo, 3 days) in HCC827; conditions: Homo sapiens, 72 h, 3 days after administration
How it was run: (§2)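 HCC827 cells were plated at 5000 cells/well in RPMI with 10% FBS, and A431 cells at the same density in DMEM with 10% FBS. After overnight attachment, compounds were added at various concentrations. Luminescence was recorded after plates were equilibrated to room temperature and incubated 10 min with reagent.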

[4] = tested on: A431 cells; assay: Cell growth inhibition (CellTiter-Glo, 3 days) in A431; conditions: Homo sapiens, A-431, 72 h, 3 days after administration
How it was run: as §2

[5] = tested on: HCC827-SVD cells (human EGFR exon 20 insertion mutant D770_N771 insSVD); assay: Cell growth inhibition (CellTiter-Glo, 3 days) in HCC827-SVD; conditions: 72 h, 3 days after administration
How it was run: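 HCC827 cells carrying lentiviral codon-optimized EGFR D770_N771 insSVD, with endogenous EGFR knocked out by CRISPR (single clone), seeded at 5000 cells/well in RPMI with 10% FBS. Viability read by CellTiter-Glo luminescence.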

| SMILES | GI50 [1] | GI50 [2] | GI50 [3] | GI50 [4] | GI50 [5] |
| --- | --- | --- | --- | --- | --- |
| C=CC(=O)N1CCC(Nc2cc3c(Nc4ccc(Oc5ccnc(N6CC(CC#N)C6)c5)cc4F)ncnc3cc2OC)CC1 [Example 208, 2-(1-(4-(4-((6-((1-acryloylpiperidin-4-yl)amino)-7-methoxyquinazolin-4-yl)amino)-3-fluorophenoxy)pyridin-2-yl)azetidin-3-yl)acetonitrile] | < 30 nM | 30 to 60 nM | 100 to 300 nM | 600 to 1000 nM | < 30 nM |
| C=CC(=O)N1CCC(Nc2cc3c(Nc4ccc(Oc5ccnc(N6C[C@@H](C)N[C@@H](C)C6)c5)cc4F)ncnc3cc2OC)CC1 [Example 154, 1-(4-((4-((4-((2-((3R,5S)-3,5-dimethylpiperazin-1-yl)pyridin-4-yl)oxy)-2-fluorophenyl)amino)-7-methoxyquinazolin-6-yl)amino)piperidin-1-yl)prop-2-en-1-one] | 100 to 300 nM | 300 to 600 nM | ≥ 1000 nM | ≥ 1000 nM | 300 to 600 nM |
| C=CC(=O)N1CCC(Nc2cc3c(Nc4ccc(Oc5ccnc(NC6CCOCC6)c5)cc4F)ncnc3cc2OC)CC1 [Compound 185, 1-(4-((4-((2-fluoro-4-((2-((tetrahydro-2H-pyran-4-yl)amino)pyridin-4-yl)oxy)phenyl)amino)-7-methoxyquinazolin-6-yl)amino)piperidin-1-yl)prop-2-en-1-one] | < 30 nM | < 30 nM | < 30 nM | 100 to 300 nM | < 30 nM |
| C=CC(=O)N1CCC(Nc2cc3c(Nc4ccc(Oc5ccnc(N6CC(C#N)C6)c5)cc4F)ncnc3cc2OC)CC1 [Example 141, 1-(4-(4-((6-((1-acryloylpiperidin-4-yl)amino)-7-methoxyquinazolin-4-yl)amino)-3-fluorophenoxy)pyridin-2-yl)azetidine-3-carbonitrile] | < 30 nM | 30 to 60 nM | 100 to 300 nM | ≥ 1000 nM | 30 to 60 nM |
| C=CC(=O)N1CCC(Nc2cc3c(Nc4ccc(Oc5nc(-c6cnc(OCC)nc6)cs5)cc4F)ncnc3cc2OC)CC1 [Example 28, 1-(4-((4-((4-((4-(2-ethoxypyrimidin-5-yl)thiazol-2-yl)oxy)-2-fluorophenyl)amino)-7-methoxyquinazolin-6-yl)amino)piperidin-1-yl)prop-2-en-1-one] | < 30 nM | 30 to 60 nM | 100 to 300 nM | 100 to 300 nM | 30 to 60 nM |
| C=CC(=O)N1CCC(Nc2cc3c(Nc4ccc(Oc5ccnc(N6CC(C)(C#N)C6)c5)cc4F)ncnc3cc2OC)CC1 [Example 205, 1-(4-(4-((6-((1-acryloylpiperidin-4-yl)amino)-7-methoxyquinazolin-4-yl)amino)-3-fluorophenoxy)pyridin-2-yl)-3-methylazetidine-3-carbonitrile] | < 30 nM | < 30 nM | < 30 nM | 100 to 300 nM | < 30 nM |
| C=CC(=O)N1CCC(Nc2cc3c(Nc4ccc(Oc5ccnc(-c6ccccc6)c5)cc4F)ncnc3cc2OC)CC1 [Compound 233, 1-(4-((4-((2-fluoro-4-((2-phenylpyridin-4-yl)oxy)phenyl)amino)-7-methoxyquinazolin-6-yl)amino)piperidin-1-yl)prop-2-en-1-one] | < 30 nM | < 30 nM | 60 to 100 nM | ≥ 1000 nM | 30 to 60 nM |
| C=CC(=O)N1CCC(Nc2cc3c(Nc4ccc(Oc5ccnc(N6CCO[C@H](CO)C6)c5)cc4F)ncnc3cc2OC)CC1 [Example 125, (S)-1-(4-((4-((2-fluoro-4-((2-(2-(hydroxymethyl)morpholino)pyridin-4-yl)oxy)phenyl)amino)-7-methoxyquinazolin-6-yl)amino)piperidin-1-yl)prop-2-en-1-one] | 100 to 300 nM | 100 to 300 nM | ≥ 1000 nM | ≥ 1000 nM | 300 to 600 nM |
| C=CC(=O)N1CCC(Nc2cc3c(Nc4ccc(Oc5ccnc(N6CCC(C)(F)C6)c5)cc4F)ncnc3cc2OC)CC1 (centres unmarked) [Example 265, 1-(4-((4-((2-fluoro-4-((2-(3-fluoro-3-methylpyrrolidin-1-yl)pyridin-4-yl)oxy)phenyl)amino)-7-methoxyquinazolin-6-yl)amino)piperidin-1-yl)prop-2-en-1-one] | < 30 nM | < 30 nM | 30 to 60 nM | 100 to 300 nM | < 30 nM |
| C=CC(=O)N1CCC(Nc2cc3c(Nc4ccc(Oc5ccn(-c6nc(OC)nc(OC)n6)n5)cc4F)ncnc3cc2OC)CC1 [Compound 31, 1-(4-((4-((4-((1-(4,6-dimethoxy-1,3,5-triazin-2-yl)-1H-pyrazol-3-yl)oxy)-2-fluorophenyl)amino)-7-methoxyquinazolin-6-yl)amino)piperidin-1-yl)prop-2-en-1-one] | 30 to 60 nM | < 30 nM | < 30 nM | < 30 nM | 30 to 60 nM |

More lines, now with the values ahead:

| GI50 [1] | GI50 [2] | GI50 [3] | GI50 [4] | GI50 [5] | SMILES |
| --- | --- | --- | --- | --- | --- |
| < 30 nM | < 30 nM | 100 to 300 nM | ≥ 1000 nM | < 30 nM | C=CC(=O)N1CCC(Nc2cc3c(Nc4ccc(Oc5ccnc(N6CC(COC)C6)c5)cc4F)ncnc3cc2OC)CC1 [Example 142, 1-(4-((4-((2-fluoro-4-((2-(3-(methoxymethyl)azetidin-1-yl)pyridin-4-yl)oxy)phenyl)amino)-7-methoxyquinazolin-6-yl)amino)piperidin-1-yl)prop-2-en-1-one] |
| 60 to 100 nM | 30 to 60 nM | 30 to 60 nM | 60 to 100 nM | 30 to 60 nM | C=CC(=O)N1CCC(Nc2cc3c(Nc4ccc(Oc5ccn(-c6cnc(C)c(F)c6)n5)c(F)c4)ncnc3cc2OC)CC1 [Example 86, 1-(4-((4-((3-fluoro-4-((1-(5-fluoro-6-methylpyridin-3-yl)-1H-pyrazol-3-yl)oxy)phenyl)amino)-7-methoxyquinazolin-6-yl)amino)piperidin-1-yl)prop-2-en-1-one] |
| 300 to 600 nM | 300 to 600 nM | ≥ 1000 nM | ≥ 1000 nM | 300 to 600 nM | C=CC(=O)N1CCC(Nc2cc3c(Nc4ccc(Oc5ccnc(N6CC(S(C)(=O)=O)C6)c5)cc4F)ncnc3cc2OC)CC1 [Example 143, 1-(4-((4-((2-fluoro-4-((2-(3-(methylsulfonyl)azetidin-1-yl)pyridin-4-yl)oxy)phenyl)amino)-7-methoxyquinazolin-6-yl)amino)piperidin-1-yl)prop-2-en-1-one] |
| 100 to 300 nM | 300 to 600 nM | 600 to 1000 nM | 600 to 1000 nM | 100 to 300 nM | C=CC(=O)N1CCC(Nc2cc3c(Nc4ccc(Oc5ccnc(N6CC(CO)C6)c5)cc4F)ncnc3cc2OC)CC1 [Example 140, 1-(4-((4-((2-fluoro-4-((2-(3-(hydroxymethyl)azetidin-1-yl)pyridin-4-yl)oxy)phenyl)amino)-7-methoxyquinazolin-6-yl)amino)piperidin-1-yl)prop-2-en-1-one] |
| < 30 nM | < 30 nM | 60 to 100 nM | ≥ 1000 nM | < 30 nM | C=CC(=O)N1CCC(Nc2cc3c(Nc4ccc(Oc5ccnc(N6C[C@@H](C)O[C@@H](C)C6)c5)cc4F)ncnc3cc2OC)CC1 [Compound 101, 1-(4-((4-((4-((2-((2R,6S)-2,6-dimethylmorpholino)pyridin-4-yl)oxy)-2-fluorophenyl)amino)-7-methoxyquinazolin-6-yl)amino)piperidin-1-yl)prop-2-en-1-one] |
| 100 to 300 nM | 100 to 300 nM | 300 to 600 nM | ≥ 1000 nM | 60 to 100 nM | C=CC(=O)N1CCC(Nc2cc3c(Nc4ccc(Oc5ccnc(N6CCC(C)(O)CC6)c5)cc4F)ncnc3cc2OC)CC1 [Example 128, 1-(4-((4-((2-fluoro-4-((2-(4-hydroxy-4-methylpiperidin-1-yl)pyridin-4-yl)oxy)phenyl)amino)-7-methoxyquinazolin-6-yl)amino)piperidin-1-yl)prop-2-en-1-one] |
| < 30 nM | < 30 nM | 300 to 600 nM | ≥ 1000 nM | < 30 nM | C=CC(=O)N1CCC(Nc2cc3c(Nc4ccc(Oc5ccnc(N6C[C@@H](OC)[C@H](OC)C6)c5)cc4F)ncnc3cc2OC)CC1 [Example 255, 1-(4-((4-((4-((2-((3R,4R)-3,4-dimethoxypyrrolidin-1-yl)pyridin-4-yl)oxy)-2-fluorophenyl)amino)-7-methoxyquinazolin-6-yl)amino)piperidin-1-yl)prop-2-en-1-one] |
| 30 to 60 nM | < 30 nM | 300 to 600 nM | 600 to 1000 nM | 60 to 100 nM | C=CC(=O)N1CCC(Nc2cc3c(Nc4ccc(Oc5ccnc(CN6CCOCC6)c5)cc4F)ncnc3cc2OC)CC1 [Compound 210, 1-(4-((4-((2-fluoro-4-((2-(morpholinomethyl)pyridin-4-yl)oxy)phenyl)amino)-7-methoxyquinazolin-6-yl)amino)piperidin-1-yl)prop-2-en-1-one] |
| 60 to 100 nM | 30 to 60 nM | 100 to 300 nM | 100 to 300 nM | 30 to 60 nM | [2H]C([2H])([2H])Oc1cc2ncnc(Nc3ccc(Oc4nc(-c5ccc(C)nc5)cs4)cc3F)c2cc1NC1CCN(C(=O)C=C)CC1 [Compound 87, 1-(4-((4-((2-fluoro-4-((4-(6-methylpyridin-3-yl)thiazol-2-yl)oxy)phenyl)amino)-7-(methoxy-d3)quinazolin-6-yl)amino)piperidin-1-yl)prop-2-en-1-one] |
